Test results reported in US8471063B2, “Michael systems as transglutaminase inhibitors” (Zedira GmbH, priority 2006, dated 2013).
*1 amine or outer side, *2 acyl side, *3 side chain or, on linkers, in order; H or OH if unused. Where a SMILES comes first, the peptide text is derived from it. [ ]: non-standard residue; d: D form. The star is where a group is joined. ξ: configuration not given here. Nle(5E-ene,6-CO2Et) = CCOC(=O)/C=C/CC[C@H](N)C(=O)O; X2 = COC(=O)/C=C/CC[C@H](N[*:1])C(=O)[*:2]; Ile(3ξ) = CCC(C)[C@H](N)C(=O)O; Cbz = O=C(OCc1ccccc1)*

Legend:
Type in all cases: biochemical
FXIII = target: T1, FXIII (Homo sapiens, UniProt P00488); experiment: Transglutaminase inhibition, IC50 at FXIII
T1 sequence (P00488 1-732): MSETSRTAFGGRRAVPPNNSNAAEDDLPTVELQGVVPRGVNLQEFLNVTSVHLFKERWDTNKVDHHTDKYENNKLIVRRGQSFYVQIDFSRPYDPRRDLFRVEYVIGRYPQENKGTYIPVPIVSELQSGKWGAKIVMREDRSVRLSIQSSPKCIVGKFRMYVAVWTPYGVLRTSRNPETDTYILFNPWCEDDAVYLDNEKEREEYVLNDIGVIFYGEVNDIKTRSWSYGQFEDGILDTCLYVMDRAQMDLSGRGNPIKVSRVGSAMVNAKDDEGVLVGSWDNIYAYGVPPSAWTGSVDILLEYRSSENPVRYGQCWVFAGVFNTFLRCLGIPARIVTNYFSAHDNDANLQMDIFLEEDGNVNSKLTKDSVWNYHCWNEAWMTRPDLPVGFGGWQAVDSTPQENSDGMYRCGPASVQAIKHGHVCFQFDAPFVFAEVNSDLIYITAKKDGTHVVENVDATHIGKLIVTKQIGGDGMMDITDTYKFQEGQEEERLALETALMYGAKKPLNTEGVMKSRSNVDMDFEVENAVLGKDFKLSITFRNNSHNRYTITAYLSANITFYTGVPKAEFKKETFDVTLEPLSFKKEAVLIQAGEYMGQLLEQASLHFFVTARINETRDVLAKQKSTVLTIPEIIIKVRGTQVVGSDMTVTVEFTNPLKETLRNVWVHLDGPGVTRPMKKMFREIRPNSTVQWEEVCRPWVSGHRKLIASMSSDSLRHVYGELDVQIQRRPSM

[1] = target: T2, recombinant human tissue transglutaminase (His6-rh-TG2) (Homo sapiens, UniProt P21980); experiment: Inactivation of human tissue transglutaminase, fluorescence assay, IC50; details: 5 min preincubation, 37° C.
T2 sequence (P21980 1-687): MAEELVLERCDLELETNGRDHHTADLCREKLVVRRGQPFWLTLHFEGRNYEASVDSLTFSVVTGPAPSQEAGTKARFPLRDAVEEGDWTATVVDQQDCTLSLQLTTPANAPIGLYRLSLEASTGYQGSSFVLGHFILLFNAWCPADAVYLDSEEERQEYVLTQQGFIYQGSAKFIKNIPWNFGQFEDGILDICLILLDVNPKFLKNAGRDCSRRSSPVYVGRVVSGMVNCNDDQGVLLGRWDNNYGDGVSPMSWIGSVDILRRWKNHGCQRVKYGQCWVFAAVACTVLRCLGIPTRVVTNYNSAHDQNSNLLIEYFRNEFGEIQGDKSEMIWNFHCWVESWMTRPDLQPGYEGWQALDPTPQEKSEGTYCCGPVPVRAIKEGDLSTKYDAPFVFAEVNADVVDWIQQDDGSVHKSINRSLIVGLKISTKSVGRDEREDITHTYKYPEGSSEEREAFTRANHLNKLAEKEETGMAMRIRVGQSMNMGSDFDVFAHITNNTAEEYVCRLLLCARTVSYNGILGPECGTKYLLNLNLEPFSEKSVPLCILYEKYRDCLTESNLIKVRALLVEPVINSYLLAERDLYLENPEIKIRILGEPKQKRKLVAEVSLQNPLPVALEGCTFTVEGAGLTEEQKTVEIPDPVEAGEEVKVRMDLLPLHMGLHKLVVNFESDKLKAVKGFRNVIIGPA
Method: 250 μg of lyophilized his-tagged recombinant human tissue transglutaminase (His6-rh-TG2) are reconstituted by the addition of 150 μl of water (resulting buffer 50 mM of NaH2PO4, 150 mM of NaCl, pH=8).
A 10 mM inhibitor stock solution in DMSO is prepared and diluted with buffer (50 mM of Tris-HCl, 10 mM of CaCl2, 5 mM of DTT, pH=7.5, respectively) to the 20-fold of the concentration desired for the inhibition mixture (at least 1/50 dilution resulting in 2% DMSO concentration).
900 μl of an assay solution composed of 55.56 mM of Tris, 11.11 mM of CaCl2, 0.11% PEG8000, 5.56 mM of DTT, 5.56 mM of glycine methyl ester and 50 μM of Abz-APE(CAD-DNP)QEA-OH, (patent number:), pH=7.5 are placed in a cuvette and brought to a temperature of 37° C. in the measuring cell of a spectrophotometer. 50 μl of the respective inhibitor solution are added to said solution (resulting in a concentration of less than 0.2% of DMSO in the mixture).
7 μl of the transglutaminase solution reconstituted above are diluted with 51 μl of buffer (50 mM of Tris, 100 mM of NaCl, 5 mM of DTT, pH=7.5). 50 μl of said enzyme solution (10 μg His6-rhTG2) are added to the assay solution containing the respective inhibitor concentration. The mixture is incubated for 5 min at 37° C. before the measurement is performed. λexc=313 nm and λem=418 nm, 15 min)
The resulting enzyme activity was measured by analyzing the slope of the straight line obtained by the increase in fluorescence.
DMSO is used instead of inhibitor stock solution in order to determine the non-inhibited enzyme activity. IC50 values are determined by plotting the resulting enzyme activity against the logarithm of the inhibitor concentration. IC50 is defined as the concentration of an inhibitor at which enzyme activity is reduced to 50% after 5 min of preincubation.

TG1 = target: T3, TG1 (Homo sapiens, UniProt P22735); experiment: Transglutaminase inhibition, IC50 at TG1
T3 sequence (P22735 1-817): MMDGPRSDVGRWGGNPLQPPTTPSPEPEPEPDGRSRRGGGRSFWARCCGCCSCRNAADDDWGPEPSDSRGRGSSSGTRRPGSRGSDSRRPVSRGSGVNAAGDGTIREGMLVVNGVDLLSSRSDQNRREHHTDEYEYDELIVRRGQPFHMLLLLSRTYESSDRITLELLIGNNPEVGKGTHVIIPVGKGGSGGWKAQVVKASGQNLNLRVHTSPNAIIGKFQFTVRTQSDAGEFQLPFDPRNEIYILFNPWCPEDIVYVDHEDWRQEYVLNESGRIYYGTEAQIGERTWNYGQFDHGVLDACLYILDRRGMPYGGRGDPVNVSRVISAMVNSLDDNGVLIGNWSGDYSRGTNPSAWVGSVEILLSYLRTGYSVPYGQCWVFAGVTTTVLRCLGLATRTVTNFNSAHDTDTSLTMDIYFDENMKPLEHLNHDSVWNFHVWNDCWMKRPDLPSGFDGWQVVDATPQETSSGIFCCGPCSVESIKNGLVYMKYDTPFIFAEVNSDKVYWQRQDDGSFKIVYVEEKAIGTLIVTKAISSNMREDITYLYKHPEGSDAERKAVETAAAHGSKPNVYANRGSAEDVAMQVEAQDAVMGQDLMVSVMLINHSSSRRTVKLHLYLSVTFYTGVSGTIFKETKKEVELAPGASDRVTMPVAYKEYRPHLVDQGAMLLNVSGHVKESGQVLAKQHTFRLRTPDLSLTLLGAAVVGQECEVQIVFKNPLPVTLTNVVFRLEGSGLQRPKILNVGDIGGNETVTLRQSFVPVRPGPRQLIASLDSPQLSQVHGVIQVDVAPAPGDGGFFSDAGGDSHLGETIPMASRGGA

IC50 (FXIII; Table 1) [µM]	IC50 ([1]; Table 1) [µM]	IC50 (TG1; Table 1) [µM]	IC50 (FXIII; Table 2) [µM]	IC50 ([1]; Table 2) [µM]	IC50 (TG1; Table 2) [µM]	SMILES
0.5	> 50	> 50	–	–	–	CCC(C)[C@H](NC(=O)[C@@H](NC(=O)[C@H](CC(C)C)NC(=O)[C@H](CO)NC(=O)[C@H](CC/C=C/C(=O)OC)NC(=O)CNC(=O)[C@@H]1CCCN1C(=O)CNC(=O)[C@H](CC(C)C)NC(C)=O)C(C)C)C(=O)NCC(=O)OC (stereo partly drawn) [Compound 8, N^α-acetyl-L-leucinyl-glycinyl-L-prolinyl-glycinyl-{[(E)-(L)-6-amino-hept-2-ene-dicarboxylic acid]-1-ethanoyl}-L-serinyl-L-leucinyl-L-valinyl-L-isoleucinyl-glycine methyl ester] (Ac-LGPG[X2]SLV[Ile(3ξ)]G-OMe)
> 50	0.125	–	–	–	–	CCOC(=O)/C=C/CC[C@H](NC(=O)OCc1ccccc1)C(=O)N[C@H](C(=O)N1CCC[C@H]1C(=O)NCCC(C)C)C(C)C [Compound 5]
–	–	–	> 100	0.13	0.825	CC(C)CC(NC(=O)C1CCCCN1C(=O)C(Cc1ccccc1)NC(=O)C(CCC=CC(=O)OCc1ccccc1)NC(=O)OCc1ccccc1)C(N)=O [Compound 3.2.8, N^α-benzyloxycarbonyl)-{[(E)-(L)-6-amino-hept-2-ene-dicarboxylic acid]-1-benzoyl}-L-phenylalaninyl-L-homoprolinyl-L-leucinyl amide]
2	> 50	> 50	–	–	–	COC(=O)/C=C/CC[C@H](NC(=O)[C@H](CC(N)=O)NC(C)=O)C(=O)N[C@@H](CCC(=O)O)C(=O)N[C@@H](C)C(=O)N[C@H](C(=O)OC)C(C)C [Compound 7, N^α-acetyl-L-asparaginyl-{[(E)-(L)-6-amino-hept-2-ene-dicarboxylic acid]-1-methanoyl}-L-glutamyl-L-alaninyl-L-valine methyl ester] (Ac-N[X2]EAV-OMe)
–	–	–	> 100	1.5	3.7	CC(C)OC(=O)C=CCCC(NC(=O)OCc1ccccc1)C(=O)NC(Cc1ccc(F)cc1)C(=O)N1CCCC1C(=O)O [Compound 3.2.7, N^α-benzyloxycarbonyl)-{[(E)-(L)-6-amino-hept-2-ene-dicarboxylic acid]-1-isopropanoyl}-L-(p-fluoro-phenylalaninyl)-L-proline]
–	–	–	> 100	18	14	COC(=O)[C@H](CC(C)C)NC(=O)[C@@H]1CCCN1C(=O)[C@H](CCC(N)=O)NC(=O)[C@H](CCC1=CC(=O)CC1)NC(=O)OCc1ccccc1 [Compound 3.2.3, N^α-benzyloxycarbonyl-[(L)-2-amino-4-(3)-oxo-cyclopent-1-enyl]-butyryl-L-glutaminyl-L-prolinyl-L-leucine methyl ester]
–	–	–	> 100	0.054	0.25	COC(=O)[C@H](CC(C)C)NC(=O)[C@@H]1CCCN1C(=O)[C@H](CCC(N)=O)NC(=O)[C@H](CC/C=C/S(C)(=O)=O)NC(=O)OCc1ccccc1 [Compound 3.2.1, N^α-benzyloxycarbonyl-{[(E)-(L)-2-amino-6-methanesulfonyl]-hex-5-enyl}-L-glutaminyl-L-prolinyl-L-leucine methyl ester]
–	–	–	> 100	> 100	23	CCCCCNC(=O)/C=C/CC[C@H](NC(C)=O)C(=O)N[C@@H](CCC(N)=O)C(=O)N[C@@H](CC(=O)O)C(=O)N1CCC[C@H]1C(=O)OC [Compound 3.2.6, Nr-acetyl-{[(E)-(L)-6.amino-hept-2-ene-dicarboxylic acid]-1-pentylamido}-L-glutaminyl-L-asparatyl-L-proline methyl ester]
–	–	–	> 100	23	–	COC(=O)C(CC(C)C)NC(=O)C1CCCN1C(=O)C(CCC(N)=O)NC(=O)C(CCC=CC(=O)O)NC(=O)OCc1ccccc1 [Compound 3.2.5, N^α-benzyloxycarbonyl)-[(E)-(L)-6-amino-hept-2-ene-dicarboxylic acid]-L-glutaminyl-L-prolinyl-L-leucine methyl ester]
–	–	–	> 100	0.76	1.3	COC(=O)[C@H](CC(C)C)NC(=O)[C@@H]1CCCN1C(=O)[C@H](CCC(N)=O)NC(=O)[C@H](CC/C=C/S(=O)(=O)N(C)C)NC(=O)OCc1ccccc1 [Compound 3.2.2]
> 50	0.35	–	–	–	–	COC(=O)/C=C/CC[C@H](NC(=O)OCc1ccccc1)C(=O)N[C@@H](CCC(N)=O)C(=O)N1CCC[C@H]1C(=O)OC [Compound 4, N^α-benzyloxycarbonyl-{[(E)-(L)-6-amino-hept-2-ene-dicarboxylic acid]-1-methanoyl}-L-glutaminyl-L-proline methyl ester]
> 50	15	–	–	–	–	CCOC(=O)/C=C/CC[C@@H](C(=O)N[C@H](C(=O)N1CCC[C@H]1C(=O)OC)C(C)C)N1CCCC1=O [Compound 6, [(E)-(L)-6-(2-oxo-pyrrolidon-1-yl)-hept-2-ene-dicarboxylic acid 1-ethanoyl]-L-valinyl-L-proline methyl ester]

SMILES	IC50 (FXIII; Table 1) [µM]	IC50 ([1]; Table 1) [µM]	IC50 (TG1; Table 1) [µM]	IC50 (FXIII; Table 2) [µM]	IC50 ([1]; Table 2) [µM]	IC50 (TG1; Table 2) [µM]
CCOC(=O)/C=C/CC[C@H](NC(=O)OCc1ccccc1)C(=O)N[C@@H](CCC(N)=O)C(=O)N1CCC[C@H]1C(=O)N[C@@H](CC(C)C)C(=O)OC [Compound 2, N^α-benzyloxycarbonyl-{[(E)-(L)-6-amino-hept-2-ene-dicarboxylic acid]-1-ethanoyl}-L-glutaminyl-L-prolinyl-L-leucine methyl ester] (Cbz-[Nle(5E-ene,6-CO2Et)]QPL-OMe)	> 50	0.02	–	–	–	–
